We go through one compound from patent publication US20100016331A1, “NOVEL COMPOUNDS” (priority 2006, published 2010).

One test deals with T1, glucocorticoid receptor (Homo sapiens, UniProt P04150).
T1 construct: a partially purified full length glucocorticoid receptor were added to the plates
T1 sequence (P04150 1-777): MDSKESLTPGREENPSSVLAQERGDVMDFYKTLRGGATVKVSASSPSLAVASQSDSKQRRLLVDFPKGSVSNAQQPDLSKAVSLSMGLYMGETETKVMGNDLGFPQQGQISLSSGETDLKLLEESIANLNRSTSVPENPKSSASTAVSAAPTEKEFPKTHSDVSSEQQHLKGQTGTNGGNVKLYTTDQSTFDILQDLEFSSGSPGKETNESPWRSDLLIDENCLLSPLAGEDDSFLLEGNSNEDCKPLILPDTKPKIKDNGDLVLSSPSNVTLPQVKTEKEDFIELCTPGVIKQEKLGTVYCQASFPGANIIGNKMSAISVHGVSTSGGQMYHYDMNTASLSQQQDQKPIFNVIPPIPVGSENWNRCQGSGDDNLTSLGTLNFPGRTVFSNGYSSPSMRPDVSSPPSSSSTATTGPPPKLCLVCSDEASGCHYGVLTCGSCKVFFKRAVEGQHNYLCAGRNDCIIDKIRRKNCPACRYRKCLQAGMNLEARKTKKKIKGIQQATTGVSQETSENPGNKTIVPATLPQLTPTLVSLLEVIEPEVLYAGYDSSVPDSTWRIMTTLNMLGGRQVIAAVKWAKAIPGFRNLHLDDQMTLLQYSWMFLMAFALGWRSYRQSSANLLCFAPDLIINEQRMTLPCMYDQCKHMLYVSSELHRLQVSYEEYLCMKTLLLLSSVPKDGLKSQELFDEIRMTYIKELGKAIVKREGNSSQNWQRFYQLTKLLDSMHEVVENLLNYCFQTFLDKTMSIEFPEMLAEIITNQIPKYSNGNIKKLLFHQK
In words: Glucocorticoid Receptor Binding Assay (fluorescence polarisation, competition with Alexa 555 labelled dexamethasone derivative). To be noted: displacement of fluorescent dexamethasone, partially purified full length glucocorticoid receptor, 2 hours at room temperature; read-out: glucocorticoid binding pIC50 (converted). As for the experimental part:
Glucocorticoid Receptor Binding Assay
The ability of compounds to bind to the glucocorticoid receptor was determined by assessing their ability to compete with an Alexa 555 fluorescently-labelled dexamethasone derivative. Compounds were solvated and dilutedin DMSO, and transferred directly into assay plates. Fluorescent dexamethasone and a partially purified full length glucocorticoid receptor were added to the plates, together with buffer components to stabilise the GR protein (including stabilisation peptide (Panvera catalogue number P2815)) andincubated at room temperature for 2 hours in the dark. Binding of each compound was assessed by analysing the displacement of fluorescent ligand by measuring the decrease in fluorescence polarisation signal from the mixture.

For a further test, the system named is NFkB Activity. In words: Glucocorticoid Mediated Transrepression of NFkB Activity (A549 cells, NFkB dependent ELAM promoter, secreted placental alkaline phosphatase reporter, TNFα stimulated). To be noted: Human A549 lung epithelial cells, 3 ng/ml human recombinant TNFα, 16 hr; read-out: pEC50, transrepression of NFkB activity (converted). The class given is cell-based. An excerpt:
Glucocorticoid Mediated Transrepression of NFkB Activity
Human A549 lung epithelial cells were engineered to contain a secreted placental alkaline phosphatase gene under the control of the distal region of the NFkB dependent ELAM promoter as previously described in Ray, K. P., Farrow, S., Daly, M., Talabot, F. and Searle, N. “Induction of the E-selectin promoter by interleukin 1 and tumour necrosis factor alpha, andinhibition by glucocorticoids” Biochemical Journal (1997) 328: 707-15.
Compounds were solvated and dilutedin DMSO, and transferred directly into assay plates such that the final concentration of DMSO was 0.7%. Following the addition of cells (40K per well), plates were incubated for 1 hr prior to the addition of 3 ng/ml human recombinant TNFα. Following continued incubation for 16 hr, alkaline phosphatase activity was determined by measuring the change in optical density at 405 nm with time following the addition of 0.7 volumes of assay buffer (1 mg/ml p-nitrophenylphosphate dissolvedin 1M diethanolamine, 0.28M NaCl, 0.5 mM MgCl2). Dose response curves were constructed from which EC50 values were estimated.

Each structure is given as a SMILES string.

For the compound `COc1ccc(F)cc1C(C)(C)CC(O)(CNc1cc(C)cc2c1cnn2-c1cccc(C(=O)N[C@H]2CCOC2=O)c1)C(F)(F)F` (single isomer, unassigned) [Example 21-A], the IC50 on glucocorticoid receptor is below 316 nM. The EC50 in the test with NFkB Activity was below 10 nM.
